In the NIST ThermoML archive (doi:10.1016/j.fluid.2015.10.026):

Conditions: Liquid, Brillouin light scattering

CCC(C)(C)OC [2-methoxy-2-methylbutane]
Conditions	speed of sound [m/s]
293.15 K, 0 kPa	1133.3
293.15 K, 1000 kPa	1139.7
293.15 K, 2500 kPa	1149
293.15 K, 4000 kPa	1158.3
293.15 K, 5500 kPa	1167.7
293.15 K, 7000 kPa	1177.2
293.15 K, 8500 kPa	1186.7
293.15 K, 10000 kPa	1196.4
303.15 K, 10 kPa	1089.4
303.15 K, 1000 kPa	1099.1
303.15 K, 2500 kPa	1109.3
303.15 K, 4000 kPa	1119.3
303.15 K, 5500 kPa	1129.3
303.15 K, 7000 kPa	1139.3
303.15 K, 8500 kPa	1149.2
303.15 K, 10000 kPa	1159
313.15 K, 10 kPa	1046.4
313.15 K, 1000 kPa	1058.3
313.15 K, 2500 kPa	1069.4
313.15 K, 4000 kPa	1080.3
313.15 K, 5500 kPa	1091
313.15 K, 7000 kPa	1101.4
313.15 K, 8500 kPa	1111.7
313.15 K, 10000 kPa	1121.8
323.15 K, 20 kPa	1004.2
323.15 K, 1000 kPa	1017.4
323.15 K, 2500 kPa	1029.4
323.15 K, 4000 kPa	1041.1
323.15 K, 5500 kPa	1052.5
323.15 K, 7000 kPa	1063.5
323.15 K, 8500 kPa	1074.2
323.15 K, 10000 kPa	1084.6
333.15 K, 20 kPa	962.62
333.15 K, 1000 kPa	976.26
333.15 K, 2500 kPa	989.25
333.15 K, 4000 kPa	1001.8
333.15 K, 5500 kPa	1013.9
333.15 K, 7000 kPa	1025.6
333.15 K, 8500 kPa	1036.8
333.15 K, 10000 kPa	1047.6
343.15 K, 40 kPa	921.56
343.15 K, 1000 kPa	934.97
343.15 K, 2500 kPa	948.94
343.15 K, 4000 kPa	962.37
343.15 K, 5500 kPa	975.26
343.15 K, 7000 kPa	987.61
343.15 K, 8500 kPa	999.41
343.15 K, 10000 kPa	1010.7
353.15 K, 60 kPa	880.86
353.15 K, 1000 kPa	893.5
353.15 K, 2500 kPa	908.48
353.15 K, 4000 kPa	922.83
353.15 K, 5500 kPa	936.54
353.15 K, 7000 kPa	949.61
353.15 K, 8500 kPa	962.05
353.15 K, 10000 kPa	973.86
363.15 K, 90 kPa	840.4
363.15 K, 1000 kPa	851.87
363.15 K, 2500 kPa	867.87
363.15 K, 4000 kPa	883.16
363.15 K, 5500 kPa	897.74
363.15 K, 7000 kPa	911.59
363.15 K, 8500 kPa	924.74
363.15 K, 10000 kPa	937.16
373.15 K, 120 kPa	800.06
373.15 K, 1000 kPa	810.06
373.15 K, 2500 kPa	827.11
373.15 K, 4000 kPa	843.38
373.15 K, 5500 kPa	858.86
373.15 K, 7000 kPa	873.55
373.15 K, 8500 kPa	887.46
373.15 K, 10000 kPa	900.58
383.15 K, 160 kPa	759.72
383.15 K, 1000 kPa	768.09
383.15 K, 2500 kPa	786.2
383.15 K, 4000 kPa	803.47
383.15 K, 5500 kPa	819.89
383.15 K, 7000 kPa	835.47
383.15 K, 8500 kPa	850.21
383.15 K, 10000 kPa	864.1
393.15 K, 200 kPa	719.27
393.15 K, 1000 kPa	725.95
393.15 K, 2500 kPa	745.14
393.15 K, 4000 kPa	763.44
393.15 K, 5500 kPa	780.85
393.15 K, 7000 kPa	797.37
393.15 K, 8500 kPa	813
393.15 K, 10000 kPa	827.74
403.15 K, 240 kPa	678.61
403.15 K, 1000 kPa	683.64
403.15 K, 2500 kPa	703.93
403.15 K, 4000 kPa	723.29
403.15 K, 5500 kPa	741.73
403.15 K, 7000 kPa	759.25
403.15 K, 8500 kPa	775.83
403.15 K, 10000 kPa	791.49
413.15 K, 300 kPa	637.63
413.15 K, 1000 kPa	641.15
413.15 K, 2500 kPa	662.56
413.15 K, 4000 kPa	683.02
413.15 K, 5500 kPa	702.53
413.15 K, 7000 kPa	721.09
413.15 K, 8500 kPa	738.7
413.15 K, 10000 kPa	755.35
423.15 K, 360 kPa	596.25
423.15 K, 1000 kPa	598.5
423.15 K, 2500 kPa	621.05
423.15 K, 4000 kPa	642.63
423.15 K, 5500 kPa	663.25
423.15 K, 7000 kPa	682.91
423.15 K, 8500 kPa	701.6
423.15 K, 10000 kPa	719.33
433.15 K, 440 kPa	554.37
433.15 K, 1000 kPa	555.68
433.15 K, 2500 kPa	579.38
433.15 K, 4000 kPa	602.12
433.15 K, 5500 kPa	623.89
433.15 K, 7000 kPa	644.7
433.15 K, 8500 kPa	664.54
433.15 K, 10000 kPa	683.41
443.15 K, 540 kPa	511.92
